In patent US20240216395A1, “19-NOR C3,3-DISUBSTITUTED C21 -N-PYRAZOLYL STEROID FOR USE IN TREATING MAJOR DEPRESSIVE DISORDER AND […]” (priority 2021, published 2024):

Legend:
[1] = tested on: nondependent, recreational users of CNS depressants; experiment: Abuse potential main study, treatment phase: TEAEs; assay type: in vivo, human; conditions: treatment phase
Description: The main study consisted of 4 phases (FIG. 30B). The screening phase was a 1-day visit occurring within 21 days of the beginning of the qualification phase. The qualification phase was a 4-day, inpatient period to ensure participants could discriminate between alprazolam (active comparator) and placebo, and that they could tolerate the alprazolam 2-mg doses. Participants received single-oral doses of alprazolam 2 mg and placebo in a crossover manner 24 hours apart, and if they could discriminate between the two medications, they continued to the treatment phase. The treatment phase was a double-blind, active- and placebo-controlled, 6-way crossover design where participants were randomized equally to a single oral dose of 1 of 6 treatments: placebo, alprazolam (1.5 and 3 mg), and Compound (1) (30, 60, and 90 mg). The Compound (1) doses were based on the results from the first part, dose selection, and treatments were separated by 7 days. The follow-up phase was a 1-day visit occurring 7 (2) days after the treatment phase.
Safety and tolerability endpoints included the frequency and severity of AEs and SAEs, the change from baseline in clinical laboratory assessments, vital signs, and ECG, and suicidality assessed by the Columbia-Suicide Severity Rating Scale (C-SSRS).
The dose selection safety set included all participants who received 1 dose of Compound (1). The main study qualification safety set included all participants who received ≥1 dose of alprazolam. For the treatment phase, the randomized set included all participants who were randomized and the safety set included all participants who received ≥1 dose of Compound (1) or alprazolam. The completer set included all participants in the randomized set who completed all treatment periods, had sufficient data for evaluation of the primary endpoint, and had ≥1 observation within 2 hours of Tmax for each treatment for Drug Liking VAS scores. […] The PK set included all participants in the treatment phase who received 1 dose of Compound (1) and had 1 PK sample after dosing.

[2] = tested on: nondependent, recreational users of CNS depressants; experiment: Abuse potential main study, treatment phase: subjective VAS measures (Drug Liking, Overall Drug Liking, Take Drug Again, High, Good/Bad/Any Drug Effects, Alertness/Drowsiness, Drug Similarity)
[3] = Alprazolam 1.5 mg - placebo (study validity)
[4] = Alprazolam 3 mg - placebo (study validity)

Compound: Cc1nnc2n1-c1ccc(Cl)cc1C(c1ccccc1)=NC2 [Alprazolam, alprazolam, reference compound]
- Back pain (TEAE) ([1]; Alprazolam 1.5 mg (n = 71)): 0 n
- Confusional state (TEAE) ([1]; Alprazolam 1.5 mg (n = 71)): 0 n
- Fine motor skill dysfunction (TEAE) ([1]; Alprazolam 1.5 mg (n = 71)): 0 n
- Hiccups (TEAE) ([1]; Alprazolam 1.5 mg (n = 71)): 0 n
- Irritability (TEAE) ([1]; Alprazolam 1.5 mg (n = 71)): 0 n
- Swelling face (TEAE) ([1]; Alprazolam 1.5 mg (n = 71)): 0 n
- Tremor (TEAE) ([1]; Alprazolam 1.5 mg (n = 71)): 0 n
- Feeling drunk (TEAE) ([1]; Alprazolam 3 mg (n = 66)): 0 n
- Fine motor skill dysfunction (TEAE) ([1]; Alprazolam 3 mg (n = 66)): 0 n
- Irritability (TEAE) ([1]; Alprazolam 3 mg (n = 66)): 0 n
- Swelling face (TEAE) ([1]; Alprazolam 3 mg (n = 66)): 0 n
- Tremor (TEAE) ([1]; Alprazolam 3 mg (n = 66)): 0 n
- Upper respiratory tract infection (TEAE) ([1]; Alprazolam 3 mg (n = 66)): 0 n
- Drug Liking Emax difference ([2]; Alprazolam 1.5 mg - placebo): 22.50
- Overall Drug Liking Emax difference ([2]; Alprazolam 1.5 mg - placebo): 24.00
- Take Drug Again Emax difference ([2]; Alprazolam 1.5 mg - placebo): 24.00
- Bad Drug Effects Emax difference [2, 3]: 0.00
- Good Drug Effects Emax difference [2, 3]: 49.00
- High Effects Emax difference [2, 3]: 43.80
- Drug Liking Emax difference ([2]; Alprazolam 3 mg - placebo): 25.52
- Overall Drug Liking Emax difference ([2]; Alprazolam 3 mg - placebo): 26.00
- Take Drug Again Emax difference ([2]; Alprazolam 3 mg - placebo): 29.00
- Bad Drug Effects Emax difference [2, 4]: 1.00
- Good Drug Effects Emax difference [2, 4]: 53.47
- High Effects Emax difference [2, 4]: 51.65
- Drug Similarity: Placebo Similarity median score ([2]; all dosages, 12 hours postdose): zero
- Drug Similarity: Benzodiazepines Similarity median score ([2]; alprazolam 1.5 mg): 92.5
- Drug Similarity: Opioids Similarity median score ([2]; alprazolam 3 mg): 40.0
